{
  "source": "patent US11325913B2",
  "about": "“Compounds and methods for the treatment of malaria” (THE BROAD INSTITUTE, INC., priority 2013, dated 2022)",
  "data": [
    {"tested_on": "P. berghei strain ANKA", "experiment": "In vivo antimalarial activity, mice infected with P. berghei strain ANKA, three daily oral doses", "design": "species or system NMVRI mice", "details": "50 mg/kg orally, three consecutive daily doses (24, 48, 72 h after infection), day 4, relative to control group", "description": "In vivo antimalarial activity for certain compounds of the invention was assessed for groups of three-five female NMVRI mice ([…]) intravenously infected on day 0 with P. berghei strain ANKA (2×10^7 parasitized erythrocytes per ml). In control mice, parasitemia typically rose to ˜40% by day 3 after infection, and control mice died between day 5 and day 7 after infection. Compounds with a dosage of 50 mg/kg were formulated in 7% Tween80/3% ethanol and were administered orally as three consecutive daily doses (24, 48, and 72 h after infection). The blood smears were collected and stained on day 4 after infection. The degree of infection (parasitemia expressed as percent infected erythrocytes) was determined microscopically, with a detection limit of 1 parasite in 10,000 erythrocytes (that is, 0.01%). Activity was calculated as the difference between the mean percent parasitemia for the control and treated groups expressed as a percent relative to the control group. Using this method, a compound of the invention (8R,9R,10S)-10-(hydroxymethyl)-N-(4-methoxyphenyl)-9-(4-(phenylethynyl)phenyl)-1,6-diazabicyclo[6.2.0]decane-6-carboxamide (compound 27) reduced parasitaemia by 57% on day 4. […] Quantification was conducted by comparison to a calibration curve prepared using blank plasma and processed in the same way as the samples.", "units": {"reduction of parasitaemia": "%"}, "values": [
      {"smiles": "COc1ccc(NC(=O)N2CCCCN3[C@H](CO)[C@H](c4ccc(C#Cc5ccccc5)cc4)[C@@H]3C2)cc1", "note": "[Compound 27, (8R,9R,10S)-10-(hydroxymethyl)-N-(4-methoxyphenyl)-9-(4-(phenylethynyl)phenyl)-1,6-diazabicyclo[6.2.0] decane-6-carboxamide]", "reduction of parasitaemia": 57}
    ]},
    {"tested_on": "P. berghei (ANKA GFP-luc) blood stage parasites", "experiment": "Single dose in vivo efficacy, P. berghei blood stage, bioluminescence imaging", "design": "species or system CD-1 mice", "details": "single 50 mg/kg oral dose", "description": "(§1) CD-1 mice (female, 6-7-week-old) were inoculated with 1×10^6 P. berghei (ANKA GFP-luc) blood stage parasites intravenously 24 hours before treatment and compounds were administered as a single 100 or 50 mg/kg dose orally at 0 hour. Parasitemia was monitored by the In vivo Imaging System (IVIS 100, Xenogen; Caliper Life Science) to acquire the bioluminescence signal. Animals with parasitemia exceeding 25% were euthanized.\n(§2) Infection proceeds rapidly in untreated mice (control), which were euthanized around day 6 of the study. Compound 37 and 68 were tested at different times; thus the artesunate control (ART) is shown for each compound. […] All images are normalized to the same color scale.", "units": {"cure of the infected animals": "%"}, "values": [
      {"smiles": "COc1ccc(NC(=O)N2CCCCN3[C@H](CN(C)C)[C@H](c4ccc(C#Cc5ccccc5)cc4)[C@@H]3C2)cc1", "note": "[Compound 68, (8R,9S,10S)-10-[(dimethylamino)methyl]-N-(4-methoxyphenyl)-9-[4-(2-phenylethynyl)phenyl]-1,6-diazabicyclo[6.2.0] decane-6-carboxamide]", "cure of the infected animals": 100}
    ]},
    {"tested_on": "P. berghei (ANKA GFP-luc) blood stage parasites", "experiment": "Single dose in vivo efficacy, P. berghei blood stage, bioluminescence imaging", "design": "species or system CD-1 mice", "details": "single 100 mg/kg dose", "description": "as §1, §2", "values": [
      {"smiles": "C[C@H]1[C@H](OC(=O)CCC(=O)O)O[C@@H]2O[C@@]3(C)CC[C@H]4[C@H](C)CC[C@@H]1[C@@]24OO3", "note": "[ART, artesunate, reference compound]", "effect on parasites": "rapid suppression of parasites, but, due to its short half-life, the parasites re-emerge quickly"}
    ]},
    {"tested_on": "P. berghei (ANKA GFP-luc) blood stage parasites", "experiment": "Single dose in vivo efficacy, P. berghei blood stage, bioluminescence imaging", "design": "species or system CD-1 mice", "details": "single oral dose, P. berghei blood stage", "description": "as §1, §2", "units": {"ED100": "mg/kg"}, "values": [
      {"smiles": "COc1ccc(NC(=O)N2CCCCN3[C@H](CN(C)C)[C@H](c4ccc(C#Cc5ccccc5)cc4)[C@@H]3C2)cc1", "note": "[Compound 68, (8R,9S,10S)-10-[(dimethylamino)methyl]-N-(4-methoxyphenyl)-9-[4-(2-phenylethynyl)phenyl]-1,6-diazabicyclo[6.2.0] decane-6-carboxamide]", "ED100": "≤ 50"}
    ]},
    {"tested_on": "P. falciparum Dd2", "experiment": "Activity against the Dd2 strain of P. falciparum (SYBR Green I, 72 h)", "type": "cell-based", "details": "P. falciparum Dd2, 72 h incubation", "outline": "(§3)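 Parasites in human RBCs at 1% parasitemia and 1.0% hematocrit, exposed to compounds (0.125% DMSO) for 72 h at 37°C under 93% N2/4% CO2/3% O2. SYBR Green I in saponin/Triton lysis buffer added, 24 h staining, fluorescence read at 485/530 nm. EC50 derived against 20 μM mefloquine background and DMSO baseline.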", "units": {"EC50": "nM"}, "values": [
      {"smiles": "O=C(Nc1ccc(F)cc1)N1CCCCN2[C@H](CO)[C@H](c3ccc(C#Cc4ccccc4)cc3)[C@@H]2C1", "note": "[Compound 54, (8R,9R,10S)-N-(4-fluorophenyl)-10-(hydroxymethyl)-9-[4-(2-phenylethynyl)phenyl]-1,6-diazabicyclo[6.2.0] decane-6-carboxamide]", "EC50": 156}
    ]},
    {"tested_on": "P. falciparum Dd2", "experiment": "Activity against the Dd2 strain of P. falciparum (SYBR Green I, 72 h)", "type": "cell-based", "details": "Plasmodium falciparum, DD2, 72 h, P. falciparum Dd2, 72 h incubation", "outline": "as §3", "units": {"EC50": "nM"}, "values": [
      {"smiles": "COc1ccc(NC(=O)N2CCCCN3[C@H](CO)[C@H](c4ccc(C#Cc5ccccc5)cc4)[C@@H]3C2)cc1", "note": "[Compound 27, (8R,9R,10S)-10-(hydroxymethyl)-N-(4-methoxyphenyl)-9-(4-(phenylethynyl)phenyl)-1,6-diazabicyclo[6.2.0] decane-6-carboxamide]", "EC50": 4},
      {"smiles": "COc1ccc(NC(=O)N2CCCCN3[C@H](CN(C)C)[C@H](c4ccc(C#Cc5ccccc5)cc4)[C@@H]3C2)cc1", "note": "[Compound 68, (8R,9S,10S)-10-[(dimethylamino)methyl]-N-(4-methoxyphenyl)-9-[4-(2-phenylethynyl)phenyl]-1,6-diazabicyclo[6.2.0] decane-6-carboxamide]", "EC50": 3},
      {"smiles": "COc1ccc(S(=O)(=O)N2CCCCN3[C@H](CO)[C@H](c4ccc(C#Cc5ccccc5)cc4)[C@@H]3C2)cc1", "note": "[Compound 40, [(8R,9R,10S)-6-(4-methoxybenzene-sulfonyl)-9-[4-(2-phenylethynyl)phenyl]-1,6-diazabicyclo[6.2.0]decan-10-yl]methanol]", "EC50": 5160},
      {"smiles": "COc1ccc(NC(=O)N2CCCCN3[C@@H](COCCC(=O)N4CCOCC4)[C@H](c4ccc(C#Cc5ccccc5)cc4)[C@@H]3C2)cc1", "note": "[Compound 91, (8R,9R,10R)-N-(4-methoxyphenyl)-10-((3-morpholino-3-oxopropoxy)methyl)-9-(4-(phenylethynyl)phenyl)-1,6-diazabicyclo[6.2.0] decane-6-carboxamide]", "EC50": 14},
      {"smiles": "COc1ccc(NC(=O)N2CCCCN3[C@H](CO)C(c4ccccc4)[C@@H]3C2)cc1", "note": "(stereo partly drawn) [Compound 31, (8R,10S)-10-(hydroxymethyl)-N-(4-methoxyphenyl)-9-phenyl-1,6-diazabicyclo[6.2.0] decane-6-carboxamide]", "EC50": 1820},
      {"smiles": "COc1ccc(NC(=O)N2CCCCN3C[C@H](c4ccc(C#Cc5ccccn5)cc4)[C@@H]3C2)cc1", "note": "[Compound 43, (8R,9S)-N-(4-methoxyphenyl)-9-{4-[2-(pyridin-2-yl)ethynyl]phenyl}-1,6-diazabicyclo[6.2.0] decane-6-carboxamide]", "EC50": 229},
      {"smiles": "COc1ccc(NC(=O)N2CCCCN3[C@H](COCCC(=O)O)[C@H](c4ccc(C#Cc5ccccc5)cc4)[C@@H]3C2)cc1", "note": "[Compound 80, 3-(((8R,9R,10S)-6-((4-methoxyphenyl)carbamoyl)-9-(4-(phenylethynyl)phenyl)-1,6-diazabicyclo[6.2.0]decan-10-yl)methoxy)propanoic acid]", "EC50": 23},
      {"smiles": "OC[C@@H]1[C@H](c2ccc(-c3ccccc3)cc2)[C@H]2CN(CCC(F)(F)F)CCCCN12", "note": "[Compound 21, ((8S,9R,10S)-9-([1,1′-biphenyl]-4-yl)-6-(3,3,3-trifluoropropyl)-1,6-diazabicyclo[6.2.0]decan-10-yl)methanol]", "EC50": 623},
      {"smiles": "COc1ccc(NC(=O)N2CCCCN3[C@@H](CN)[C@H](c4ccc(C#Cc5ccccc5)cc4)[C@@H]3C2)cc1", "note": "[Compound 48, (8R,9S,10R)-10-(aminomethyl)-N-(4-methoxyphenyl)-9-[4-(2-phenylethynyl)phenyl]-1,6-diazabicyclo[6.2.0] decane-6-carboxamide]", "EC50": 36},
      {"smiles": "O=C(NC1CCCCC1)N1CCCCN2[C@H](CO)[C@H](c3ccc(C#Cc4ccccc4)cc3)[C@@H]2C1", "note": "[Compound 44, (8R,9R,10S)-N-cyclohexyl-10-(hydroxymethyl)-9-[4-(2-phenylethynyl)phenyl]-1,6-diazabicyclo[6.2.0] decane-6-carboxamide]", "EC50": 1100},
      {"smiles": "COCC#Cc1ccc([C@@H]2[C@H](CO)N3CCCCN(S(=O)(=O)c4ccc(OC)cc4)C[C@@H]23)cc1", "note": "[Compound 20, ((8R,9S,10R)-6-((4-methoxyphenyl)sulfonyl)-9-(4-(3-methoxyprop-1-yn-1-yl)phenyl)-1,6-diazabicyclo[6.2.0]decan-10-yl)methanol]", "EC50": 1330},
      {"smiles": "COc1ccc(NC(=O)N2CCCCN3[C@@H](CO)[C@H](c4ccc(C#Cc5ccccn5)cc4)[C@@H]3C2)cc1", "note": "[Compound 25, (8R,9R,10R)-10-(hydroxymethyl)-N-(4-methoxyphenyl)-9-(4-(pyridin-2-ylethynyl)phenyl)-1,6-diazabicyclo[6.2.0] decane-6-carboxamide]", "EC50": 155},
      {"smiles": "COc1ccc(NC(=O)N2CCCN3[C@H](CO)[C@H](c4ccc(C#Cc5ccccc5)cc4)[C@@H]3C2)cc1", "note": "[Compound 79, (7R,8R,9S)-9-(hydroxymethyl)-N-(4-methoxyphenyl)-8-[4-(2-phenylethynyl)phenyl]-1,5-diazabicyclo[5.2.0] nonane-5-carboxamide]", "EC50": 850},
      {"smiles": "COc1ccc(NC(=O)N2CCCCN3[C@@H](CN(C)C)[C@H](c4ccc(C#Cc5ccccc5)cc4)[C@@H]3C2)cc1", "note": "[Compound 92, (8R,95S,10R)-10-((dimethylamino)methyl)-N-(4-methoxyphenyl)-9-(4-(phenylethynyl)phenyl)-1,6-diazabicyclo[6.2.0] decane-6-carboxamide]", "EC50": 108},
      {"smiles": "COc1ccc(NC(=O)N2CCCCN3[C@H](CN)[C@H](c4ccc(C#Cc5ccccn5)cc4)[C@@H]3C2)cc1", "note": "[Compound 57, (8R,9S,10S)-10-(aminomethyl)-N-(4-methoxyphenyl)-9-{4-[2-(pyridin-2-yl)ethynyl]phenyl}-1,6-diazabicyclo[6.2.0] decane-6-carboxamide]", "EC50": 98},
      {"smiles": "COc1ccc(NC(=O)N2CCCCN3[C@H](CO)[C@H](c4ccc(C#Cc5ccc(F)cc5)cc4)[C@@H]3C2)cc1", "note": "[Compound 51, (8R,9R,10S)-9-{4-[2-(4-fluorophenyl)ethynyl]phenyl}-10-(hydroxymethyl)-N-(4-methoxyphenyl)-1,6-diazabicyclo[6.2.0] decane-6-carboxamide]", "EC50": 11},
      {"smiles": "COc1ccc(NC(=O)N2CCCCN3[C@H](CN4CC(C)(O)C4)[C@H](c4ccc(C#Cc5ccccc5)cc4)[C@@H]3C2)cc1", "note": "[Compound 73, (8R,9S,10S)-10-[(3-hydroxy-3-methylazetidin-1-yl)methyl]-N-(4-methoxyphenyl)-9-[4-(2-phenylethynyl)phenyl]-1,6-diazabicyclo[6.2.0] decane-6-carboxamide]", "EC50": 104},
      {"smiles": "COc1ccc(NC(=O)N2CCCCN3[C@H](CNCC(F)(F)F)[C@H](c4ccc(C#Cc5ccccc5)cc4)[C@@H]3C2)cc1", "note": "[Compound 90, (8R,9S,10S)-N-(4-methoxyphenyl)-9-(4-(phenylethynyl)phenyl)-10-(((2,2,2-trifluoroethyl)amino)methyl)-1,6-diazabicyclo[6.2.0] decane-6-carboxamide]", "EC50": 228},
      {"smiles": "COc1ccc(NC(=O)N2CCCCN3[C@H](COCCC(=O)N4CCOCC4)[C@H](c4ccc(C#Cc5ccccc5)cc4)[C@@H]3C2)cc1", "note": "[Compound 89, (8R,9R,10S)-N-(4-methoxyphenyl)-10-((3-morpholino-3-oxopropoxy)methyl)-9-(4-(phenylethynyl)phenyl)-1,6-diazabicyclo[6.2.0] decane-6-carboxamide]", "EC50": 8}
    ]}
  ]
}
